Test system: virgin females of Heliothis virescens
Assay: Pheromonotropic assay (topical application)
Type: in vivo
Conditions: for dose approaching 100% maximal response, topical application: 15 minutes following topical application
Description: The amphiphilic carboranyl analog Cbe--Thr--Pro--Arg--Leu--NH2 was dissolved in water and solutions at concentrations of 5, 10, 25, 60, and 200 pmol/μl were prepared. The cuticular scales along the lateral side of the abdomen were removed with a 1 ml plastic pipet tip attached to house vacuum with a rubber hose. A low vacuum was applied to the apparatus and the pipet tip was gently passed over the cuticle until the scales were drawn by suction. After the scales were removed, 1 μl of peptide solution was applied to the surface of the cuticle and smoothed evenly over the prepared surface. […]
Pupae of Heliothis virescens were obtained from a laboratory colony maintained at the Insect Attractants Behavior and Basic Biology Research Laboratory, USDA-ARS, Gainesville, Fla. The pupae were separated by sex and the females were held in 4-1 cages. Cages were inspected daily for newly eclosed adults which were transferred to new cages and provided with cotton wicks soaked with a 5% sucrose solution. The insects were held at 25°[…] C. and 65%±3% relative humidity with a 12:12 (L:D) photoperiod. Virgin females were used for bioassays 2 and 3 days after eclosion during the 7th-8th hour of the photophase when little or no pheromone is present in the gland (Teal et al., 1993, Can. Entomol., 153:355-366). The cuticular scales were removed from the lateral side of the abdomen using a plastic pipet tip attached to house vacuum using a rubber hose. A low vacuum was applied and the pipet tip was passed gently over the cuticle until the scales were drawn off by suction. Insects were returned to the incubator for 24 h after the scales were removed for most experiments. However, insects were not given a recovery period in studies in which peptides were applied in DMSO (see below).
In initial studies we used dimethyl sulfoxide (DMSO) as a carrier to deliver Hez--PBAN or [6--Pha--Ala^0 ]Lom--MT--II for topical applications. […] We also assessed different carrier solvents for their ability to deliver these two peptides. Peptides were dissolved at a concentration of 500 pmol/μl in: DMSO, water, or 80% acetonitrile:20% water. Solutions were applied to the descaled abdomen in 1 μl of solvent as above. The insects were allowed to incubate for 1 h prior to excision and extraction of the pheromone gland. Extracts were analyzed for the amount of pheromone as above.
The use of water as a carrier for [6--Pha--Ala^0 ]Lom--MT--II was also assessed in dose response and temporal activity studies. For dose response studies [6--Pha--Ala^0 ]Lom--MT--II was dissolved in water at concentrations of 5, 10, 25, 50, 75, 100, 250, 500, 750 and 1000 pmol/μl. Insects were incubated for 60 min after application of 1 μl of solution to the descaled abdomen. In temporal activity studies a 100 pmol/μl dose was selected. For these experiments insects were incubated for periods of 15, 30, 60, 120, or 180 min after application of 1 μl of solution to the descaled abdomen. The ability of the parent peptide, Lom--MT--II, to stimulate pheromone production when applied topically in water was assessed by applying doses of 50, 100, 250 and 500 pmol to the abdomen. Control treatments for this experiment included insects treated with only water and females treated by topical application of 100 pmol of [6--Pha--Ala^0 ]Lom--MT--II. After incubation the sex pheromone glands were excised, extracted and analyzed for the amount of pheromone.

Cbe--Thr--Pro--Arg--Leu--NH2 was tested. Which “ED50 (EC50), pheromone production after topical application” value (1 μl aqueous solution on lateral abdominal surface, FIG. 4) did it give?
Its value is 25 pmoles/female.

And the “ED50, pheromone production via topical application” value (H. virescens, 1 μl aqueous solution)?
Its value is 25 pmol.

And the “time after topical application at which pheromone production is elicited” value (aqueous solution)?
The value was “about 15 minutes”.

What about the “dose approaching 100% maximal response, topical application” value (aqueous solution, listed as carboranyl analog) of the same substance?
The value was 60 pmoles/female.

What about the “dose approaching 100% maximal response, topical application” value (aqueous solution, listed as carboranyl peptide) of the same substance?
The value was “about 60 pmoles/female”.

What about the “Maximal Response via topical application (dose)” value (relative to 5 pmoles PBAN via injection) of the same substance?
The value was 60 pmol.

And the “concentration giving maximal pheromone stimulation, topical application” value (topically applied)?
The value was 60 picomoles/insect.

— US5795857A, “Mimetic insect pyrokinin analogs for insect control” (The United States of America as represented by the …, priority 1996, dated 1998)
